From patent US20210060108A1, “INULA HELENIUM EXTRACTS FOR TREATING AND PREVENTING POLLUTION RELATED DAMAGE” (priority 2017, published 2021)

Experiment: Heavy metal (ferrous ion-Ferrozine) chelation assay
Assay type: biochemical
Conditions: Fe2+ chelation; calculated based on unpreserved extract dry weight
Description: The IC50 refers to the amount of extract required to chelate 50% of the available iron (II) in the assay. The lower the number, the higher the chelation power of an extract.
The ability of Inula extract to act as an anti-pollutant or antagonist of the adverse effects of pollutants and/or toxins in pollutants was further investigated in heavy metal chelation assays. Further to this objective, Inula extracts was tested in in vitro assay to assess its chelator power. In this assay, the ferrous ion is used as a model for heavy metals. The concentration of the ferrous iron-Ferrozine complex was measured by spectrophotometry (absorbance at 562 nm) to determine the Fe 2+-chelating ability of the extract or fraction. The reaction mixture, containing 2 Mm FeCl2 and 5 mM ferrozine was adjusted to 2 ml with bi-distilled water. The mixture was shaken and incubated for 10 min at room temperature. The absorbance of the mixture was measured at 562 nm against a blank EDTA was used as positive control. The choice of an internal reference may be adjusted in accordance with the heavy metal assay performed and such references are known in the art. Chelating power is expressed as an IC50 value (mg/ml) and reflects the concentration at which 50% of the available iron was chelated by, for example, supplemental extract added to the assay mix.

O=C(O)CN(CCN(CC(=O)O)CC(=O)O)CC(=O)O [EDTA (reference), EDTA]
IC50* (mg/ml DRY WEIGHT): 0.038 mg/ml DRY WEIGHT
